According to PubChem BioAssay AID274 (DTP/NCI, 2004):
“And” between values parts separate entries of the source, which are not always exact repeats. Equal entries are not always repeated. Inconclusive results and toxic doses are left out. Numbered stars: 1 amine (or outer) side, 2 acyl side, 3 side chain; on linkers, the order of the positions; unused ones are H or OH. Bridge positions count the residues as written; N and C are the ends. Square brackets hold non-standard residues; d marks the D form. Peptide text beside a SMILES is read from it. I, II: the chains in the order shown. Actinocin(9to1) = Cc1c2oc3c(C)ccc(C(=O)[*:1])c3nc-2c(C(=O)[*:2])c(N)c1=O; aThr = C[C@H](O)[C@H](N)C(=O)O; NMeV = CN[C@H](C(=O)O)C(C)C; Sar = CNCC(=O)O

Tested on: BDF1 mice, Lewis lung carcinoma iv, survival T/C
Test: NCI In Vivo Anticancer Drug Screen. Data for tumor model Lewis Lung Carcinoma (intravenous) in B6D2F1 (BDF1) mice
Details: endpoint: median survival time, higher = longer survival
Method: The antitumor activity of compounds was measured in mice bearing transplantable tumors. Survival or tumor size were measured and the results are expressed as the measurement made in the treated group (T) divided by the measurement made in the vehicle treated control group (C). The tumor model used in this assay is Lewis Lung Carcinoma (intravenous) in B6D2F1 (BDF1) mice

[1] = dose: 25.0 mg/kg/injection, schedule: Q01DX009 (ip), vehicle: saline with Tween-80
[2] = dose: 50.0 mg/kg/injection, schedule: Q01DX009 (ip), vehicle: saline with Tween-80
[3] = dose: 100.0 mg/kg/injection, schedule: Q01DX009 (ip), vehicle: saline with Tween-80
[4] = dose: 200.0 mg/kg/injection, schedule: Q01DX009 (ip), vehicle: saline with Tween-80

`O=NN(CCCl)C(=O)NC1[C@H](O)CCC[C@@H]1O` (stereo partly drawn) was tested, and the T/C (dose: 0.62 mg/kg/injection, schedule: Q01DX009 (ip), vehicle: saline) was 105 % of control, the T/C (dose: 1.25 mg/kg/injection, schedule: Q01DX009 (ip), vehicle: saline) was 120 % of control and the T/C (dose: 2.5 mg/kg/injection, schedule: Q01DX009 (ip), vehicle: saline) was 159 % of control. For the same compound, the T/C (dose: 5.0 mg/kg/injection, schedule: Q01DX009 (ip), vehicle: saline) was 278 % of control.

For `O=[N+]([O-])c1ccc(-n2[nH]nnc2=S)cc1`, the T/C (dose: 12.5 mg/kg/injection, schedule: Q01DX009 (ip), vehicle: saline with Tween-80) was 92 % of control, the T/C [1] was 101 % of control and the T/C [2] was 92 % of control. The T/C [3] was 92 % of control and the T/C [4] was 93 % of control.

With `CC1=C(/C=C/C(C)=C/C=C/C(C)=C/C(=O)O)C(C)(C)CCC1` the T/C (dose: 4.0 mg/kg/injection, schedule: Q01DX005 (ip), vehicle: saline with Tween-80) was 92 % of control, the T/C (dose: 8.0 mg/kg/injection, schedule: Q01DX005 (ip), vehicle: saline with Tween-80) was 95 % of control and the T/C (dose: 16.0 mg/kg/injection, schedule: Q01DX005 (ip), vehicle: saline with Tween-80) was 102 % of control. For the same compound, the T/C (dose: 32.0 mg/kg/injection, schedule: Q01DX005 (ip), vehicle: saline with Tween-80) was 91 % of control and the T/C (dose: 128.0 mg/kg/injection, schedule: Q01DX005 (ip), vehicle: saline with Tween-80) was 91 % of control.

For `Cc1ccc(NCC2(/N=C/c3ccccc3)OC(CO)C(O)C2O)cc1` (stereo not drawn), the T/C (dose: 12.5 mg/kg/injection, schedule: Q01DX009 (ip), vehicle: Klucel (hydroxypropylcellulose) (HPC)) was 103 % of control, the T/C (dose: 25.0 mg/kg/injection, schedule: Q01DX009 (ip), vehicle: Klucel (hydroxypropylcellulose) (HPC)) was 95 % of control and the T/C (dose: 50.0 mg/kg/injection, schedule: Q01DX009 (ip), vehicle: Klucel (hydroxypropylcellulose) (HPC)) was 100 % of control. For the same compound, the T/C (dose: 100.0 mg/kg/injection, schedule: Q01DX009 (ip), vehicle: Klucel (hydroxypropylcellulose) (HPC)) was 99 % of control, the T/C (dose: 200.0 mg/kg/injection, schedule: Q01DX009 (ip), vehicle: Klucel (hydroxypropylcellulose) (HPC)) was 96 % of control and the T/C (dose: 400.0 mg/kg/injection, schedule: Q01DX009 (ip), vehicle: Klucel (hydroxypropylcellulose) (HPC)) was 86 % of control.

In the case of `COc1ccc2nonc2c1`, the T/C [1] is reported as 191 % of control, the T/C [2] is reported as 109 % of control and the T/C [3] is reported as 101 % of control. For the same compound, the T/C [4] was 103 % of control.

`Cc1c2oc3c(C)ccc(C(=O)N[C@@H]4C(=O)N[C@H](C(C)C)C(=O)N5CCC[C@H]5C(=O)N(C)CC(=O)N(C)[C@@H](C(C)C)C(=O)O[C@H]4C)c3nc-2c(C(=O)N[C@@H]2C(=O)N[C@H](C(C)C)C(=O)N3CCC[C@H]3C(=O)N(C)CC(=O)N(C)[C@@H](C(C)C)C(=O)O[C@H]2C)c(N)c1=O` (I: [aThr][dV]P[Sar][NMeV] / II: [aThr][dV]P[Sar][NMeV]; ester I:1-I:C, II:1-II:C; linker I:N-II:N via Actinocin(9to1)) was tested, and the T/C (dose: 65.0 micrograms/kg/injection, schedule: Q04DX003 (ip), vehicle: saline + alcohol) was 91 % of control, the T/C (dose: 108.0 micrograms/kg/injection, schedule: Q04DX003 (ip), vehicle: saline + alcohol) was 92 % of control and 94 % of control and the T/C (dose: 180.0 micrograms/kg/injection, schedule: Q04DX003 (ip), vehicle: saline + alcohol) was 97 % of control and 104 % of control. For the same compound, the T/C (dose: 259.0 micrograms/kg/injection, schedule: Q01DX001 (ip), vehicle: saline + alcohol) was 94 % of control, the T/C (dose: 300.0 micrograms/kg/injection, schedule: Q04DX003 (ip), vehicle: saline + alcohol) was 95 % of control and 106 % of control and the T/C (dose: 432.0 micrograms/kg/injection, schedule: Q01DX001 (ip), vehicle: saline + alcohol) was 98 % of control.

`O=c1n(CC2CO2)c(=O)n(CC2CO2)c(=O)n1CC1CO1` (stereo not drawn) was tested, and the T/C (dose: 6.25 mg/kg/injection, schedule: Q01DX009 (ip), vehicle: suspension in saline) was 105 % of control and 100 % of control, the T/C (dose: 12.5 mg/kg/injection, schedule: Q01DX009 (ip), vehicle: suspension in saline) was 107 % of control and 101 % of control and the T/C (dose: 25.0 mg/kg/injection, schedule: Q01DX009 (ip), vehicle: suspension in saline) was 121 % of control and 101 % of control.
